# Source: paper PMC12858467, “In vitro toxicokinetics and metabolic profiling of methoxycathinones and methylthiocathinones using human liver systems and hyphenated mass spectrometry” (Archives of Toxicology, 2025)
# Tests used:
# Format in all cases: in vitro ADME
# Details in all cases: 30 min, 37 °C
# [1] = biological target: T1, CYP3A4 (Homo sapiens, UniProt P08684); assay: Monooxygenases activity screening, CYP3A4; parameters: key: +, detected; -, not detected
# T1 construct: purchased Discovery Life Sciences (Huntsville, LA, USA); host or cells: baculovirus-infected insect cells (microsomes, Supersomes)
# T1 sequence (P08684 whole entry): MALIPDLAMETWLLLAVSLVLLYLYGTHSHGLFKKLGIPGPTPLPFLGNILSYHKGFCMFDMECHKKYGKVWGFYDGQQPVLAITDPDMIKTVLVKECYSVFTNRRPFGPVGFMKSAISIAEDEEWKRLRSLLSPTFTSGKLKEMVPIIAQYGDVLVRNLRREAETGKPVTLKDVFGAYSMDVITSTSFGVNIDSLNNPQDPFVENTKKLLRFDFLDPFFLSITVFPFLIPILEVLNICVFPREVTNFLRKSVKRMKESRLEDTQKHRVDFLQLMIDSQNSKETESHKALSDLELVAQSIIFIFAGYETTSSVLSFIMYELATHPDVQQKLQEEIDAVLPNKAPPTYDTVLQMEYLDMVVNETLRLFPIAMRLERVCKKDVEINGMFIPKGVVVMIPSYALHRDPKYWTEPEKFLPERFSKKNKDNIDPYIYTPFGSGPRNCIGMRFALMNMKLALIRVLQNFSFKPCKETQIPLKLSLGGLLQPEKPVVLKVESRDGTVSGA
# Experimental: (§1) For incubations with CYP2A6 or CYP2C9, phosphate buffer was replaced with 90 mM Tris buffer, according to the manufacturer’s guideline. […] All incubations were done in duplicate and concentrations were fixed. Verapamil (25 µM) was incubated as a positive control.
# [2] = biological target: T2, flavin-containing monooxygenase 3 (FMO3) (Homo sapiens, UniProt P31513); assay: Monooxygenases activity screening, FMO3; parameters: key: +, detected; -, not detected
# T2 construct: purchased Discovery Life Sciences (Huntsville, LA, USA); host or cells: baculovirus-infected insect cells (microsomes, Supersomes)
# T2 sequence (P31513 1-532): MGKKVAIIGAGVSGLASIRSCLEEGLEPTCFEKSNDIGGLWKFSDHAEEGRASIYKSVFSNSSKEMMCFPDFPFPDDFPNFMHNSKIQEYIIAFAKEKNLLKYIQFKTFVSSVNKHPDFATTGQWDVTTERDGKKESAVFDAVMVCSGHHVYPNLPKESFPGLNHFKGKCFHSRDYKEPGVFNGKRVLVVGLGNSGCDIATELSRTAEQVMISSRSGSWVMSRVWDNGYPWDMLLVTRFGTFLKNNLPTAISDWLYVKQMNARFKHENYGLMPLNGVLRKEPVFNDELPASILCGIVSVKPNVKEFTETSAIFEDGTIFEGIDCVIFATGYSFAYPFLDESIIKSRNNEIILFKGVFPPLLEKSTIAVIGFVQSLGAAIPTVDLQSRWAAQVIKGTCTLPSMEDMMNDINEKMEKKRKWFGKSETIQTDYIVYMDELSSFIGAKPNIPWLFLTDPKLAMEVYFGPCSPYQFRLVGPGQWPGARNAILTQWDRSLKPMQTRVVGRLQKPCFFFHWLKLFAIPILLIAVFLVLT
# Experimental: as §1
# [3] = biological target: T3, CYP2B6 (Homo sapiens, UniProt P20813); assay: Monooxygenases activity screening, CYP2B6; parameters: key: +, detected; -, not detected
# T3 construct: purchased Discovery Life Sciences (Huntsville, LA, USA); host or cells: baculovirus-infected insect cells (microsomes, Supersomes)
# T3 sequence (P20813 1-491): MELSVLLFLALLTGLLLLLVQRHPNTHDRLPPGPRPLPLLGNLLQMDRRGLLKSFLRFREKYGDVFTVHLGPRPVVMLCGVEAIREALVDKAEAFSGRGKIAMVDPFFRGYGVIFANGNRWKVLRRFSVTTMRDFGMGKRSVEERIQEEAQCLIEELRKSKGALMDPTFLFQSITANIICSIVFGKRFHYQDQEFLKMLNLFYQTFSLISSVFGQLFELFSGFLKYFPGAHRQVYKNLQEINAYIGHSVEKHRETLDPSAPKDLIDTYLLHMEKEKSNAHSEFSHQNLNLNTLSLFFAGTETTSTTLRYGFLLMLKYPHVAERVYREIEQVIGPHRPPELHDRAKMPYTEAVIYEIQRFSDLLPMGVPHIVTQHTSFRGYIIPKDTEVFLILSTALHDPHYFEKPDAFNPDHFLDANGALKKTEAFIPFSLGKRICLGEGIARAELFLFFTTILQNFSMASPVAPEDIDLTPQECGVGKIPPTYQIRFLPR
# Experimental: as §1
# [4] = biological target: T4, CYP3A5 (Homo sapiens, UniProt P20815); assay: Monooxygenases activity screening, CYP3A5; parameters: key: +, detected; -, not detected
# T4 construct: purchased Discovery Life Sciences (Huntsville, LA, USA); host or cells: baculovirus-infected insect cells (microsomes, Supersomes)
# T4 sequence (P20815 whole entry): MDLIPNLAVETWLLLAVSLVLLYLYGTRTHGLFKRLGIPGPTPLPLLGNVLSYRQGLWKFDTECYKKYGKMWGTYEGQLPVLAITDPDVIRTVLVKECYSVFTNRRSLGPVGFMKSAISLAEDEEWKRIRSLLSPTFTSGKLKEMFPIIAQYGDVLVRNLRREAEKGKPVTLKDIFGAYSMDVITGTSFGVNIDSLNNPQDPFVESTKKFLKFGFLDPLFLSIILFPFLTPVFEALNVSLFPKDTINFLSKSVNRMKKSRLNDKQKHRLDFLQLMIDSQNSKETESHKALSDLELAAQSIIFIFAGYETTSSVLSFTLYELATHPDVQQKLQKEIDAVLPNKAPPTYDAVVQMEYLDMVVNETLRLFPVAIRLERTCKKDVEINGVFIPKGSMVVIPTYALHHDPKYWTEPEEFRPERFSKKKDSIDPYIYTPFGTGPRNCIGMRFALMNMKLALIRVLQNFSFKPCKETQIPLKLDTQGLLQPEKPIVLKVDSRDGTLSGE
# Experimental: as §1
# [5] = biological target: T5, CYP2E1 (Homo sapiens, UniProt P05181); assay: Monooxygenases activity screening, CYP2E1; parameters: key: +, detected; -, not detected
# T5 construct: purchased Discovery Life Sciences (Huntsville, LA, USA); host or cells: baculovirus-infected insect cells (microsomes, Supersomes)
# T5 sequence (P05181 whole entry): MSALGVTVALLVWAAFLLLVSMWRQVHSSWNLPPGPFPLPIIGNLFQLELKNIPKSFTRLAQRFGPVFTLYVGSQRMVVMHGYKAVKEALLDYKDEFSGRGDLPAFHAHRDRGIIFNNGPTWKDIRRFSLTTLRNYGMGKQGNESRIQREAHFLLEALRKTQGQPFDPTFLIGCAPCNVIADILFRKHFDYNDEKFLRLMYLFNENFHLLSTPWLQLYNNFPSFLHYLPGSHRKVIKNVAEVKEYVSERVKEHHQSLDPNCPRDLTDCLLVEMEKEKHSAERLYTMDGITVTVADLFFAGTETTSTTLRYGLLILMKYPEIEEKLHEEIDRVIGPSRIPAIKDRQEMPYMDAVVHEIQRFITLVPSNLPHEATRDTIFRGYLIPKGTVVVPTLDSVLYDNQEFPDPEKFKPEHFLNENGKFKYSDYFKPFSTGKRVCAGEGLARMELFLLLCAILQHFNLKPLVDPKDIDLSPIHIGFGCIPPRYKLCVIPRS
# Experimental: as §1
# [6] = biological target: T6, CYP2C9 (Homo sapiens, UniProt P11712); assay: Monooxygenases activity screening, CYP2C9; parameters: key: +, detected; -, not detected
# T6 construct: purchased Discovery Life Sciences (Huntsville, LA, USA); host or cells: baculovirus-infected insect cells (microsomes, Supersomes)
# T6 sequence (P11712 whole entry): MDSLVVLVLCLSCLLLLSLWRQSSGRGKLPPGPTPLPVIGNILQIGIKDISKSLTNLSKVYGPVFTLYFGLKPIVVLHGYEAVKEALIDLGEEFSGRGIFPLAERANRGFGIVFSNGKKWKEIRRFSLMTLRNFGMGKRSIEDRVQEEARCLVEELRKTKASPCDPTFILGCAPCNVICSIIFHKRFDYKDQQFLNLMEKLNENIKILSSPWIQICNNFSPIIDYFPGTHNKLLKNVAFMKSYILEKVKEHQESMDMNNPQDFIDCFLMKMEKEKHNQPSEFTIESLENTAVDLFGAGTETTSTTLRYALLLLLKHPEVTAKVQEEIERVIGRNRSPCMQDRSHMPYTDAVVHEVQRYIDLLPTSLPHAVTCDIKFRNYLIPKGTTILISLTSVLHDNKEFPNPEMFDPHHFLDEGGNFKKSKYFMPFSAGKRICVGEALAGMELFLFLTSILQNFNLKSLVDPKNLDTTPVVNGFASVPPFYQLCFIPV
# Experimental: as §1
# [7] = biological target: T7, CYP2D6 (Homo sapiens, UniProt P10635); assay: Monooxygenases activity screening, CYP2D6; parameters: key to one-step metabolite detected in CYP2D6 incubation: +, detected; -, not detected
# T7 construct: purchased Discovery Life Sciences (Huntsville, LA, USA); host or cells: baculovirus-infected insect cells (microsomes, Supersomes)
# T7 sequence (P10635 whole entry): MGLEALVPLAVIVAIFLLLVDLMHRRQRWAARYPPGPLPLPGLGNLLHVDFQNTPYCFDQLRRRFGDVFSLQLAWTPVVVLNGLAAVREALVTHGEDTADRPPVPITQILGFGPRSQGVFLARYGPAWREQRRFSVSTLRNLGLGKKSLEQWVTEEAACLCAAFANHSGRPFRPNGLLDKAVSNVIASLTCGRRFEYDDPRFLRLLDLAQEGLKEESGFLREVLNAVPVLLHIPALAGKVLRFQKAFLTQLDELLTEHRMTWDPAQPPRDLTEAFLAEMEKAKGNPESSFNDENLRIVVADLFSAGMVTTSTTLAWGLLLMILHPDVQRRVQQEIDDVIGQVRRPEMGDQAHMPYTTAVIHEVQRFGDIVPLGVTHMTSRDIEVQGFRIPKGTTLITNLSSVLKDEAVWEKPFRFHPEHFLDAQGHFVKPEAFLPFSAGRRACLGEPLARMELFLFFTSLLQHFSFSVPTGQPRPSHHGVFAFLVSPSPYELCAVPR
# Experimental: as §1
# [8] = biological target: T8, CYP2C19 (Homo sapiens, UniProt P33261); assay: Monooxygenases activity screening, CYP2C19; parameters: key: +, detected; -, not detected
# T8 construct: purchased Discovery Life Sciences (Huntsville, LA, USA); host or cells: baculovirus-infected insect cells (microsomes, Supersomes)
# T8 sequence (P33261 whole entry): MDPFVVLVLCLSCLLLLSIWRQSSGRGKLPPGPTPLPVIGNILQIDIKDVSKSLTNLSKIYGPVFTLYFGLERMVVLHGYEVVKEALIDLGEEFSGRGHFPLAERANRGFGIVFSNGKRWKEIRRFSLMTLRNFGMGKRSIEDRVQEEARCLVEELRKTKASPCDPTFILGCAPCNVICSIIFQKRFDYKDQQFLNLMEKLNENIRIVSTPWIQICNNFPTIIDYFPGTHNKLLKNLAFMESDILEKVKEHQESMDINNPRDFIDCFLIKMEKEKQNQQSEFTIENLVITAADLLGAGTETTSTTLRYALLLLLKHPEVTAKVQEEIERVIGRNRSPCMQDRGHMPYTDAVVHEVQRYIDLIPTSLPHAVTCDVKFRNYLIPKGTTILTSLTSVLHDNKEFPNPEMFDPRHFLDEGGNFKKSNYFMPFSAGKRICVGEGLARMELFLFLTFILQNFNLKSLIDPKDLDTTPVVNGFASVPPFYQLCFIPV
# Experimental: as §1
# [9] = biological target: T9, CYP2C8 (Homo sapiens, UniProt P10632); assay: Monooxygenases activity screening, CYP2C8; parameters: key: +, detected; -, not detected
# T9 construct: purchased Discovery Life Sciences (Huntsville, LA, USA); host or cells: baculovirus-infected insect cells (microsomes, Supersomes)
# T9 sequence (P10632 1-490): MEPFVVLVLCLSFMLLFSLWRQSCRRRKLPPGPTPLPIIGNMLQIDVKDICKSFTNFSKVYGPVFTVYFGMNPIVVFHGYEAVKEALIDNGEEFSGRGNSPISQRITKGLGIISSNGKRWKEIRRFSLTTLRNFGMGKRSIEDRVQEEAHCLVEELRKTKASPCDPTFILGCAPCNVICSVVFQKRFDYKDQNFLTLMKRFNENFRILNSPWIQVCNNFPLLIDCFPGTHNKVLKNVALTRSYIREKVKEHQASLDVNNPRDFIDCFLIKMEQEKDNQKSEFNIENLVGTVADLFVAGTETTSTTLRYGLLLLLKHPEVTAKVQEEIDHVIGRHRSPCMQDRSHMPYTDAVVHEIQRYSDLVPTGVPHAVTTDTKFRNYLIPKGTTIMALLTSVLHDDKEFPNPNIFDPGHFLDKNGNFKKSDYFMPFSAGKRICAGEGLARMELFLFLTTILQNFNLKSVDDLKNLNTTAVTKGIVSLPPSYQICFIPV
# Experimental: as §1
# [10] = biological target: T10, CYP2A6 (Homo sapiens, UniProt P11509); assay: Monooxygenases activity screening, CYP2A6; parameters: key: +, detected; -, not detected
# T10 construct: purchased Discovery Life Sciences (Huntsville, LA, USA); host or cells: baculovirus-infected insect cells (microsomes, Supersomes)
# T10 sequence (P11509 1-494): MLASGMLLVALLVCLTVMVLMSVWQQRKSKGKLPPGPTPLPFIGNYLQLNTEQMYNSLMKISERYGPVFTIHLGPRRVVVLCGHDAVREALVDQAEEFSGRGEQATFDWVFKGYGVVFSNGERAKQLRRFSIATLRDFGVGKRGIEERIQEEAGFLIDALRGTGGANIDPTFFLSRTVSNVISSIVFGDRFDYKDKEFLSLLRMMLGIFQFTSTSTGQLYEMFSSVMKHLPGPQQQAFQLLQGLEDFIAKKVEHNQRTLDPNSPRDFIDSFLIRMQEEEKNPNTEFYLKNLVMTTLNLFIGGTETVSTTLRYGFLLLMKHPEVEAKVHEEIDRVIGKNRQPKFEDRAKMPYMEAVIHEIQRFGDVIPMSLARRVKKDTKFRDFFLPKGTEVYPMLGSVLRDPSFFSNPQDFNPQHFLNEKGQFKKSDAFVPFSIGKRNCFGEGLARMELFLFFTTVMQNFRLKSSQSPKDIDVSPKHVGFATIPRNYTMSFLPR
# Experimental: as §1
# [11] = biological target: T11, CYP1A2 (Homo sapiens, UniProt P05177); assay: Monooxygenases activity screening, CYP1A2; parameters: key: +, detected; -, not detected
# T11 construct: purchased Discovery Life Sciences (Huntsville, LA, USA); host or cells: baculovirus-infected insect cells (microsomes, Supersomes)
# T11 sequence (P05177 1-516): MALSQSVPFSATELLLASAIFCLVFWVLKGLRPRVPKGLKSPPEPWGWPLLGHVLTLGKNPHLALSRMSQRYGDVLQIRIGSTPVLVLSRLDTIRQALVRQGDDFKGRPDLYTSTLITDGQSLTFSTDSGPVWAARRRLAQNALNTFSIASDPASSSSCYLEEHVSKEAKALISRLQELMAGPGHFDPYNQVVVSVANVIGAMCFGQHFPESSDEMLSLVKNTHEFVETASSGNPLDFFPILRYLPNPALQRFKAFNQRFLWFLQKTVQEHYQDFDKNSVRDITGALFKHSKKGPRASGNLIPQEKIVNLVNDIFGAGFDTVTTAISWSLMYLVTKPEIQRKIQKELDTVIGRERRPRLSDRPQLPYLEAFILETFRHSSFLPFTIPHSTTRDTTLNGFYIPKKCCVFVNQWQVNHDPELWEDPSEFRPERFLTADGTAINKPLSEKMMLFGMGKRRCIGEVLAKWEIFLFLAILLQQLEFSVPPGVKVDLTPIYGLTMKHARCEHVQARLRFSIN
# Experimental: as §1
# [12] = substrate 4MeS-αMor-PrP 25 µM, Table S3.6
# [13] = substrate 4MeO-αP-VP 25 µM, Table S3.3
# [14] = substrate 4MeO-NE-BP 25 µM, Table S3.1
smiles,measurement,setting,value
CC(C(=O)c1ccc(S)cc1)N1CCOCC1 (stereo not drawn) [MT3.1],one-step metabolite detected in CYP3A4 incubation,[1]; [12],+
same,one-step metabolite detected in FMO3 incubation,[2]; [12],-
same,one-step metabolite detected in CYP2B6 incubation,[3]; [12],+
same,one-step metabolite detected in CYP3A5 incubation,[4]; [12],+
same,one-step metabolite detected in CYP2E1 incubation,[5]; [12],-
same,one-step metabolite detected in CYP2C9 incubation,[6]; [12],-
same,one-step metabolite detected in CYP2D6 incubation,[7]; [12],+
same,one-step metabolite detected in CYP2C19 incubation,[8]; [12],+
same,one-step metabolite detected in CYP2C8 incubation,[9]; [12],+
same,one-step metabolite detected in CYP2A6 incubation,[10]; [12],-
same,one-step metabolite detected in CYP1A2 incubation,[11]; [12],+
CCCC(C(=O)c1ccc(O)cc1)N1CCCC1 (stereo not drawn) [MO3.2],one-step metabolite detected in CYP3A4 incubation,[1]; [13],+
same,one-step metabolite detected in FMO3 incubation,[2]; [13],-
same,one-step metabolite detected in CYP2B6 incubation,[3]; [13],-
same,one-step metabolite detected in CYP3A5 incubation,[4]; [13],-
same,one-step metabolite detected in CYP2E1 incubation,[5]; [13],-
same,one-step metabolite detected in CYP2C9 incubation,[6]; [13],-
same,one-step metabolite detected in CYP2D6 incubation,[7]; [13],+
same,one-step metabolite detected in CYP2C19 incubation,[8]; [13],+
same,one-step metabolite detected in CYP2C8 incubation,[9]; [13],+
same,one-step metabolite detected in CYP2A6 incubation,[10]; [13],-
same,one-step metabolite detected in CYP1A2 incubation,[11]; [13],+
CCC(C(=O)c1ccc(OC)cc1)N(O)CC (stereo not drawn) [MO1.4],one-step metabolite detected in CYP3A4 incubation,[1]; [14],+
same,one-step metabolite detected in FMO3 incubation,[2]; [14],+
same,one-step metabolite detected in CYP2B6 incubation,[3]; [14],+
same,one-step metabolite detected in CYP3A5 incubation,[4]; [14],+
same,one-step metabolite detected in CYP2E1 incubation,[5]; [14],-
same,one-step metabolite detected in CYP2C9 incubation,[6]; [14],-
same,one-step metabolite detected in CYP2D6 incubation,[7]; [14],+
same,one-step metabolite detected in CYP2C19 incubation,[8]; [14],+
same,one-step metabolite detected in CYP2C8 incubation,[9]; [14],+
same,one-step metabolite detected in CYP2A6 incubation,[10]; [14],-
same,one-step metabolite detected in CYP1A2 incubation,[11]; [14],+
